From ChEMBL document CHEMBL5325396, “Discovery of Novel Acridane-Based Tubulin Polymerization Inhibitors with Anticancer and Potential Immunomodulatory Effects” (J Med Chem, 2023)

How the values were obtained:
B16-F10 [1] = test: Antiproliferative activity against mouse B16-F10 cells incubated for 48 hrs by MTT assay; format: functional, cell-based; settings: B16-F10, 48 h
HeLa = test: cells; settings: Homo sapiens, 48 h
Description: Antiproliferative activity against human HeLa cells incubated for 48 hrs by MTT assay

HepG2 = test: Antiproliferative activity against human HepG2 cells incubated for 48 hrs by MTT assay; format: functional, cell-based; settings: HepG2, 48 h
HCT-116 = test: Antiproliferative activity against human HCT-116 cells incubated for 48 hrs by MTT assay; format: functional, cell-based; settings: HCT-116, 48 h
Tubulin = test: Inhibition of tubulin polymerization (unknown origin); format: protein-complex assay, Homo sapiens
B16-F10 [2] = test: Induction of apoptosis in mouse B16-F10 cells assessed as viable cells at 20 nM incubated for 48 hrs by annexinV-FITC/PI staining based flow cytometry (reference value: 93.6 %); format: functional; settings: read-out: Activity
B16-F10 [3] = test: Induction of cell cycle arrest in mouse B16-F10 cells assessed as accumulation at S phase at 20 nM incubated for 24 hrs by PI staining based flow cytometry (reference value: 21.79 %); format: functional
B16-F10 [4] = test: Induction of apoptosis in mouse B16-F10 cells assessed as necrotic cells at 20 nM incubated for 48 hrs by annexinV-FITC/PI staining based flow cytometry (reference value: 0.064 %); format: functional
B16-F10 [5] = test: Induction of apoptosis in mouse B16-F10 cells assessed as early apoptotic cells at 20 nM incubated for 48 hrs by annexinV-FITC/PI staining based flow cytometry (reference value: 4.25 %); format: functional
B16-F10 [6] = test: Induction of apoptosis in mouse B16-F10 cells assessed as late apoptotic cells at 20 nM incubated for 48 hrs by annexinV-FITC/PI staining based flow cytometry (reference value: 2.06 %); format: functional
B16-F10 [7] = test: Induction of cell cycle arrest in mouse B16-F10 cells assessed as accumulation at G1 phase at 20 nM incubated for 24 hrs by PI staining based flow cytometry (reference value: 52.77 %); format: functional
B16-F10 [8] = test: Induction of cell cycle arrest in mouse B16-F10 cells assessed as accumulation at G2 phase at 20 nM incubated for 24 hrs by PI staining based flow cytometry (reference value: 23.04 %); format: functional
[9] = Toxicity in C57 mouse allografted with mouse B16-F10 cells assessed as body weight loss at 10 mg/kg, ip administered consecutively for 14 days; format: organism-based; settings: in vivo, 336 h, time 14 day
B16-F10 [10] = test: Antitumor activity against mouse B16-F10 cells allografted in C57 mouse assessed as tumor growth inhibition at 10 mg/kg, ip administered consecutively for 14 days; format: functional; settings: B16-F10, 336 h, time 14 day, read-out: TGI
B16-F10 [11] = test: Immunomodulatory activity in mouse B16-F10 cells allografted in C57 mouse assessed as decrease in PD-L1 level at 10 mg/kg, ip administered consecutively for 14 days relative to control; format: functional; design: scale not given: the % may be the effect or the level left; settings: time 14 day
B16-F10 [12] = test: Immunomodulatory activity in mouse B16-F10 cells allografted in C57 mouse assessed as increase in CD3-positive CD8-positive cells at 10 mg/kg, ip administered consecutively for 14 days (reference value: 6.66 %); format: functional; settings: time 14 day

| Structure (SMILES) | IC50 (B16-F10 [1]) [nM] | IC50 (HeLa) [nM] | IC50 (HepG2) [nM] | IC50 (HCT-116) [nM] | further results |
| --- | --- | --- | --- | --- | --- |
| COc1cc(C(=O)N2c3ccccc3C(c3ccccc3)c3ccccc32)cc(OC)c1OC | > 10000 | > 10000 | > 10000 | > 10000 | – |
| COc1cc(C(=O)N2c3ccccc3Cc3ccccc32)cc(OC)c1OC | 146 | 1200 | 160 | 257 | IC50 (Tubulin): 1600 nM |
| COc1cc(C(=O)N2c3ccccc3Cc3ccc(F)cc32)cc(OC)c1OC | 6900 | > 10000 | > 10000 | > 10000 | – |
| COc1cc(C(=O)N2c3ccccc3Cc3c(Cl)cccc32)cc(OC)c1OC | 157 | 86 | 71 | 250 | – |
| COc1cc(C(=O)N2c3ccccc3Cc3cc(F)ccc32)cc(OC)c1OC | 144 | 98 | 35 | 256 | – |
| COc1cc(C(=O)N2c3cc(Br)ccc3Cc3c2ccc(C)c3C)cc(OC)c1OC | 85 | 104 | 107 | 129 | – |
| COc1cc2c(c(OC)c1OC)-c1ccc(OC)c(=O)cc1[C@@H](NC(C)=O)CC2 [COLCHICINE] | 88 | 126 | 25 | – | viability at 0.02 µM (B16-F10 [2]): 81.5%; Activity (B16-F10 [3]): 33.02%; Activity (B16-F10 [4]): 0.466%; Activity (B16-F10 [5]): 12.4%; Activity (B16-F10 [6]): 5.68%; Activity (B16-F10 [7]): 10.06%; Activity (B16-F10 [8]): 55.16% |
| COc1cc(C(=O)N2c3cc(C)ccc3Cc3ccc(F)cc32)cc(OC)c1OC | 274 | 188 | 30 | 240 | – |
| COc1cc(C(=O)N2c3ccccc3Cc3ccc(Cl)cc32)cc(OC)c1OC | 211 | 189 | 58 | 427 | – |
| Cc1c(COc2cc(OCc3cccc(C#N)c3)c(CNC(C)(C)C(=O)O)cc2Cl)cccc1-c1ccccc1 | – | – | – | – | Activity [9]: Non-Toxic; inhibition in vivo at 10 mg/kg (B16-F10 [10]): 19%; Activity (B16-F10 [11]): ~45%; Activity (B16-F10 [12]): 14.6% |
| COc1cc(C(=O)N2c3cccc(Cl)c3Cc3c(C)ccc(C)c32)cc(OC)c1OC | 845 | 586 | 184 | 429 | – |
| COc1cc(C(=O)N2c3ccccc3Cc3ccc4ccccc4c32)cc(OC)c1OC | > 10000 | > 10000 | > 10000 | > 10000 | – |
| COC(=O)c1ccc2c(c1)N(C(=O)c1cc(OC)c(OC)c(OC)c1)c1cc(F)ccc1C2 | 1260 | 1160 | 630 | > 10000 | – |
| COc1cc(C(=O)N2c3ccccc3Cc3c(C)cccc32)cc(OC)c1OC | 91 | 909 | 102 | 172 | – |
| COc1cc(C(=O)N2c3ccccc3Cc3c(C)ccc(C)c32)cc(OC)c1OC | 56 | 49 | 30 | 62 | – |
| COC(=O)c1ccc2c(c1)N(C(=O)c1cc(OC)c(OC)c(OC)c1)c1ccccc1C2 | 7170 | 8350 | 3280 | 9370 | – |
| COc1cc(C(=O)N2c3ccccc3Cc3cc(Cl)ccc32)cc(OC)c1OC | 106 | 78 | 69 | 191 | – |
| COc1cc(C(=O)N2c3cc(F)ccc3Cc3cc4ccccc4cc32)cc(OC)c1OC | 752 | 676 | 216 | > 10000 | – |
| COc1cc(C(=O)N2c3ccccc3Cc3cccc(OC)c32)cc(OC)c1OC | 92 | 117 | 161 | 208 | – |
| COc1cc(C(=O)N2c3ccccc3Cc3ccc(C(F)(F)F)cc32)cc(OC)c1OC | 5520 | 6870 | 2860 | 6870 | – |
| COc1ccc2c(c1)Cc1ccccc1N2C(=O)c1cc(OC)c(OC)c(OC)c1 | 80 | 105 | 91 | 103 | – |
| COc1cc(C(=O)N2c3cc(Cl)ccc3Cc3ccc(Cl)cc32)cc(OC)c1OC | 1020 | 1030 | 716 | > 10000 | – |
| COc1cc(C(=O)N2c3cc(F)ccc3Cc3ccc(F)cc32)cc(OC)c1OC | 1980 | 2050 | 661 | > 10000 | – |
| COc1cc(C(=O)N2c3ccccc3Cc3cc(C)ccc32)cc(OC)c1OC | 84 | 131 | 83 | 128 | – |
